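Assay format: 96-well plates, 48-hour exposure. Abbreviation: GI50, concentration required for 50% inhibition of growth. TGI: total growth inhibition.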
Assays:
Experiment in all cases: inhibition of tumour cell growth, NCI panel, 48 h
SK-MEL-2 melanoma = tested on: SK-MEL-2 melanoma
PC-3 prostate = tested on: PC-3 prostate
A549 NSCLC = tested on: A549 NSCLC
HL-60(TB) leukemia = tested on: HL-60(TB) leukemia
MALME-3M melanoma = tested on: MALME-3M melanoma
SF-295 CNS = tested on: SF-295 CNS
SN12C renal = tested on: SN12C renal
SF-539 CNS = tested on: SF-539 CNS
LOX IMVI melanoma = tested on: LOX IMVI melanoma
OVCAR-8 ovarian = tested on: OVCAR-8 ovarian
SK-MEL-28 melanoma = tested on: SK-MEL-28 melanoma
HT29 colon = tested on: HT29 colon
HOP-92 NSCLC = tested on: HOP-92 NSCLC
A498 renal = tested on: A498 renal
SK-MEL-5 melanoma = tested on: SK-MEL-5 melanoma
UACC-62 melanoma = tested on: UACC-62 melanoma
DU-145 prostate = tested on: DU-145 prostate
NCI-H522 lung = tested on: NCI-H522 lung
MDA-MB-231 breast = tested on: MDA-MB-231 breast
MDA-N = tested on: MDA-N
HCC-2998 colon = tested on: HCC-2998 colon
HCT-15 colon = tested on: HCT-15 colon
MDA-MB-435 = tested on: MDA-MB-435
SNB-75 CNS = tested on: SNB-75 CNS
CCRF-CEM leukemia = tested on: CCRF-CEM leukemia
MCF7 breast = tested on: MCF7 breast
786-0 renal = tested on: 786-0 renal
KM12 colon = tested on: KM12 colon
SNB-19 CNS = tested on: SNB-19 CNS
RPMI-8226 leukemia = tested on: RPMI-8226 leukemia
CAKI-1 renal = tested on: CAKI-1 renal
HCT-116 colon = tested on: HCT-116 colon
M14 melanoma = tested on: M14 melanoma
COLO 205 colon = tested on: COLO 205 colon
OVCAR-4 ovarian = tested on: OVCAR-4 ovarian
HOP-62 NSCLC = tested on: HOP-62 NSCLC
T-47D breast = tested on: T-47D breast
IGROV1 ovarian = tested on: IGROV1 ovarian
EKVX NSCLC = tested on: EKVX NSCLC
NCI-H226 lung = tested on: NCI-H226 lung
OVCAR-5 ovarian = tested on: OVCAR-5 ovarian
MOLT-4 leukemia = tested on: MOLT-4 leukemia
U251 CNS = tested on: U251 CNS
OVCAR-3 ovarian = tested on: OVCAR-3 ovarian
UO-31 renal = tested on: UO-31 renal
SK-OV-3 ovarian = tested on: SK-OV-3 ovarian
NCI/ADR-RES ovarian = tested on: NCI/ADR-RES ovarian
RXF 393 renal = tested on: RXF 393 renal
ACHN renal = tested on: ACHN renal
SW-620 colon = tested on: SW-620 colon
UACC-257 melanoma = tested on: UACC-257 melanoma
K-562 leukemia = tested on: K-562 leukemia
NCI-H23 lung = tested on: NCI-H23 lung
TK-10 renal = tested on: TK-10 renal
SF-268 CNS = tested on: SF-268 CNS
HS 578T breast = tested on: HS 578T breast
SR leukemia = tested on: SR leukemia
NCI-H460 lung = tested on: NCI-H460 lung
BT-549 breast = tested on: BT-549 breast

NCc1ccc(-c2ccc(-c3ccc(-c4ccc(CN)s4)s3)s2)s1
TGI (SK-MEL-2 melanoma): > 100 µM | TGI (PC-3 prostate): > 100 µM | TGI (A549 NSCLC): > 100 µM | TGI (HL-60(TB) leukemia): > 100 µM | TGI (MALME-3M melanoma): > 100 µM | TGI (SF-295 CNS): > 100 µM | TGI (SN12C renal): > 100 µM | TGI (SF-539 CNS): > 100 µM | TGI (LOX IMVI melanoma): > 100 µM | TGI (OVCAR-8 ovarian): > 100 µM | TGI (SK-MEL-28 melanoma): > 100 µM | TGI (HT29 colon): > 100 µM | TGI (HOP-92 NSCLC): > 100 µM | TGI (A498 renal): > 100 µM | TGI (SK-MEL-5 melanoma): > 100 µM | TGI (UACC-62 melanoma): > 100 µM | TGI (DU-145 prostate): > 100 µM | TGI (NCI-H522 lung): > 100 µM | TGI (MDA-MB-231 breast): > 100 µM | TGI (MDA-N): > 100 µM | TGI (HCC-2998 colon): > 100 µM | TGI (HCT-15 colon): > 100 µM | TGI (MDA-MB-435): > 100 µM | TGI (SNB-75 CNS): > 100 µM | TGI (CCRF-CEM leukemia): > 100 µM | TGI (MCF7 breast): > 100 µM | TGI (786-0 renal): > 100 µM | TGI (KM12 colon): > 100 µM | TGI (SNB-19 CNS): > 100 µM | TGI (RPMI-8226 leukemia): > 100 µM | TGI (CAKI-1 renal): > 100 µM | TGI (HCT-116 colon): > 100 µM | TGI (M14 melanoma): > 100 µM | TGI (COLO 205 colon): > 100 µM | TGI (OVCAR-4 ovarian): > 100 µM | TGI (HOP-62 NSCLC): > 100 µM | TGI (T-47D breast): > 100 µM | TGI (IGROV1 ovarian): > 100 µM | TGI (EKVX NSCLC): > 100 µM | TGI (NCI-H226 lung): > 100 µM | TGI (OVCAR-5 ovarian): > 100 µM | TGI (MOLT-4 leukemia): > 100 µM | TGI (U251 CNS): > 100 µM | TGI (OVCAR-3 ovarian): > 100 µM | TGI (UO-31 renal): > 100 µM | TGI (SK-OV-3 ovarian): > 100 µM | TGI (NCI/ADR-RES ovarian): > 100 µM | TGI (RXF 393 renal): > 100 µM | TGI (ACHN renal): > 100 µM | TGI (SW-620 colon): > 100 µM | TGI (UACC-257 melanoma): > 100 µM | TGI (K-562 leukemia): > 100 µM | TGI (NCI-H23 lung): > 100 µM | TGI (TK-10 renal): > 100 µM

COc1ccc(C(=O)Cn2c(C(=O)c3ccc(OC)cc3)nc3ccccc32)cc1
GI50 (SK-MEL-2 melanoma): 12.6 µM | TGI (SK-MEL-2 melanoma): > 100 µM | GI50 (PC-3 prostate): 2.43 µM | TGI (PC-3 prostate): > 100 µM | GI50 (A549 NSCLC): 5.47 µM | TGI (A549 NSCLC): > 100 µM | GI50 (HL-60(TB) leukemia): 0.436 µM | TGI (HL-60(TB) leukemia): 10.8 µM | GI50 (MALME-3M melanoma): 2.91 µM | TGI (MALME-3M melanoma): > 100 µM | GI50 (SF-295 CNS): 2.08 µM | TGI (SF-295 CNS): > 100 µM | GI50 (SN12C renal): > 92.9 µM | TGI (SN12C renal): > 100 µM | GI50 (SF-268 CNS): 6.25 µM | TGI (SF-268 CNS): > 100 µM | GI50 (HS 578T breast): 2.14 µM | TGI (HS 578T breast): > 28.5 µM | GI50 (SF-539 CNS): 2.8 µM | TGI (SF-539 CNS): > 100 µM | GI50 (LOX IMVI melanoma): 6.42 µM | TGI (LOX IMVI melanoma): > 100 µM | GI50 (SR leukemia): 0.557 µM | GI50 (OVCAR-8 ovarian): 5.85 µM | TGI (OVCAR-8 ovarian): > 100 µM | GI50 (SK-MEL-28 melanoma): 3 µM | TGI (SK-MEL-28 melanoma): > 100 µM | GI50 (HT29 colon): 0.576 µM | TGI (HT29 colon): > 100 µM | GI50 (HOP-92 NSCLC): > 100 µM | TGI (HOP-92 NSCLC): > 100 µM | GI50 (A498 renal): 1.64 µM | TGI (A498 renal): > 100 µM | GI50 (SK-MEL-5 melanoma): 2.36 µM | TGI (SK-MEL-5 melanoma): > 27.1 µM | GI50 (UACC-62 melanoma): 3.47 µM | TGI (UACC-62 melanoma): > 100 µM | GI50 (DU-145 prostate): 4.31 µM | TGI (DU-145 prostate): > 100 µM | GI50 (NCI-H522 lung): 2.19 µM | TGI (NCI-H522 lung): > 100 µM | GI50 (MDA-MB-231 breast): 9.23 µM | TGI (MDA-MB-231 breast): > 100 µM | GI50 (HCC-2998 colon): 5.64 µM | TGI (HCC-2998 colon): > 100 µM | GI50 (HCT-15 colon): 1.21 µM | TGI (HCT-15 colon): > 100 µM | GI50 (NCI-H460 lung): 3.73 µM | TGI (NCI-H460 lung): > 100 µM | GI50 (MDA-MB-435): 0.284 µM | TGI (MDA-MB-435): > 34.4 µM | GI50 (SNB-75 CNS): 2.16 µM | TGI (SNB-75 CNS): > 54.3 µM | GI50 (CCRF-CEM leukemia): 1.69 µM | TGI (CCRF-CEM leukemia): > 42.8 µM | GI50 (MCF7 breast): 1.36 µM | TGI (MCF7 breast): > 100 µM | GI50 (786-0 renal): 4.54 µM | TGI (786-0 renal): > 100 µM | GI50 (KM12 colon): 1.16 µM | TGI (KM12 colon): > 100 µM | GI50 (SNB-19 CNS): 4.37 µM | TGI (SNB-19 CNS): > 100 µM | GI50 (RPMI-8226 leukemia): 1.52 µM | TGI (RPMI-8226 leukemia): 8.28 µM | GI50 (CAKI-1 renal): 1.94 µM | TGI (CAKI-1 renal): > 100 µM | GI50 (HCT-116 colon): 2.36 µM | TGI (HCT-116 colon): > 100 µM | GI50 (M14 melanoma): 1.59 µM | TGI (M14 melanoma): > 100 µM | GI50 (COLO 205 colon): 2.38 µM | TGI (COLO 205 colon): 8.21 µM | GI50 (OVCAR-4 ovarian): 5.8 µM | TGI (OVCAR-4 ovarian): > 100 µM | GI50 (HOP-62 NSCLC): 5.46 µM | TGI (HOP-62 NSCLC): > 100 µM | GI50 (T-47D breast): 3.39 µM | TGI (T-47D breast): > 100 µM | GI50 (IGROV1 ovarian): 5.09 µM | TGI (IGROV1 ovarian): > 100 µM | GI50 (EKVX NSCLC): 18.9 µM | TGI (EKVX NSCLC): > 100 µM | GI50 (NCI-H226 lung): > 28.5 µM | TGI (NCI-H226 lung): > 100 µM | GI50 (OVCAR-5 ovarian): > 25.1 µM | TGI (OVCAR-5 ovarian): > 100 µM | GI50 (MOLT-4 leukemia): 0.861 µM | TGI (MOLT-4 leukemia): > 100 µM | GI50 (U251 CNS): 3.16 µM | TGI (U251 CNS): > 100 µM | GI50 (OVCAR-3 ovarian): 2.03 µM | TGI (OVCAR-3 ovarian): > 100 µM | GI50 (UO-31 renal): 6.27 µM | TGI (UO-31 renal): > 100 µM | GI50 (SK-OV-3 ovarian): 2.96 µM | TGI (SK-OV-3 ovarian): > 100 µM | GI50 (NCI/ADR-RES ovarian): 0.671 µM | TGI (NCI/ADR-RES ovarian): 4.06 µM | GI50 (RXF 393 renal): 2.07 µM | TGI (RXF 393 renal): > 23.2 µM | GI50 (ACHN renal): 6.58 µM | TGI (ACHN renal): > 100 µM | GI50 (SW-620 colon): 0.816 µM | TGI (SW-620 colon): > 100 µM | GI50 (UACC-257 melanoma): 53 µM | TGI (UACC-257 melanoma): > 100 µM | GI50 (K-562 leukemia): 0.483 µM | TGI (K-562 leukemia): > 100 µM | GI50 (NCI-H23 lung): 6.15 µM | TGI (NCI-H23 lung): > 100 µM | GI50 (BT-549 breast): 3.52 µM | TGI (BT-549 breast): > 100 µM | GI50 (TK-10 renal): 4.8 µM | TGI (TK-10 renal): > 100 µM

Reference: PubChem BioAssay (NCI)
